According to US7868204B2, “Inhibitors of histone deacetylase” (MethylGene Inc., priority 2001, dated 2011):
Read-outs that look alike come from different tables or passages of the source.

How the values were obtained:
[1] = biological target: T1, cloned recombinant human HDAC-1 (Homo sapiens, UniProt Q13547); assay: Human HDAC-1 enzyme inhibition, Assay 1 ([3H]-acetylated histone substrate, scintillation counting); assay type: biochemical
T1 construct: made in house; host or cells: Baculovirus insect cell expression system
T1 sequence (Q13547 whole entry): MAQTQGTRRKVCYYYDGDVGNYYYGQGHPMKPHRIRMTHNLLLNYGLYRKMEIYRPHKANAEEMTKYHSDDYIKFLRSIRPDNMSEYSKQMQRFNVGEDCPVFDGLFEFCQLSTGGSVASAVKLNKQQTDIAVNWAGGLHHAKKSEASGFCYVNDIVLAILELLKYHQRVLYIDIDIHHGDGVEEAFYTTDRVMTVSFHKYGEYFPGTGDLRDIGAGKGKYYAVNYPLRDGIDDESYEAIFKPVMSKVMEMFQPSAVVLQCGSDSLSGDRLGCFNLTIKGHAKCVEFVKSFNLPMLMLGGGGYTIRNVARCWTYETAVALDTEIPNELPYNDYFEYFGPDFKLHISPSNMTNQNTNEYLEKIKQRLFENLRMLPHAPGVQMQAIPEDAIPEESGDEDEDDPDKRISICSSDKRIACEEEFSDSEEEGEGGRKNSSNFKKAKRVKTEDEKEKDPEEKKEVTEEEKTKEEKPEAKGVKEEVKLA
Summary of the method: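 Recombinant human HDAC-1 from baculovirus-infected insect cells, preincubated with compound 30 min at 4° C. before reaction. Released [3H]-acetic acid extracted with ethyl acetate and counted by scintillation. IC50 taken from dose-response curves as concentration giving half-maximal inhibition.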

HCT116 cells = assay: MTT assay; assay type: cell-based; conditions: Homo sapiens, HCT116 cells, 72 hours
Summary of the method: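 Cells plated one day before dosing, then exposed to compound 72 h at 37 °C, 5% CO2. MTT at 0.5 mg/ml final for 4 h, solubilized in DMF/SDS buffer pH 4.7; OD converted to cell number from a standard growth curve.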

[2] = system: acetylated histone H-4 in T24 human bladder cancer cells; assay: Histone H4 acetylation in whole cells by immunoblots; assay type: cell-based; conditions: 16 h
Summary of the method: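 T24 cells were treated with HDAC inhibitors for 16 h; […] total histone protein was resolved by SDS/PAGE and immunoblotted with polyclonal anti-acetylated H4 antibody. ECL detection, with signal quantified by densitometry.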

[3] = Table 5F, read-out: Human HDAC-1 IC50
[4] = T-24, Table 5F, read-out: H4 Ac (T24) EC50
[5] = Table 5E, read-out: Human HDAC-1 IC50
[6] = T-24, Table 5E, read-out: H4 Ac (T24) EC50
[7] = Table 5b, read-out: Human HDAC-1 IC50
[8] = T-24, Table 5b, read-out: H4Ac (T24) EC50
[9] = Table 5d, read-out: HDAC-1 IC50
[10] = T-24, Table 5d, read-out: H4Ac(T24) EC50

| SMILES | IC50 [1, 3] [nM] | IC50 (HCT116 cells; HCT-116, 72 h, Table 5F) [nM] | EC50 [2, 4] [nM] | further results |
| --- | --- | --- | --- | --- |
| Cc1cc(C)nc(NCc2ccc(C(=O)Nc3ccccc3N)cc2)c1 [Cpd 383, N-(2-Amino-phenyl)-4-[(4,6-dimethyl-pyridin-2-ylamino)-methyl]-benzamide] | 2000 | 500 | 2000 | – |
| COc1cc(OC)nc(NCc2ccc(C(=O)Nc3ccccc3N)cc2)n1 [Cpd 169] | – | – | – | IC50 [1, 5]: 300 nM; IC50 (HCT116 cells; HCT-116, 72 h, Table 5E): 700 nM; EC50 [2, 6]: 1000 nM |
| Nc1ccccc1NC(=O)c1ccc(CNc2cc(-c3ccccc3)[nH]n2)cc1 [Cpd 468, N-(2-Amino-phenyl)-4-[(5-phenyl-1H-pyrazol-3-ylamino)-methyl]-benzamide] | 2000 | 8000 | < 1000 | – |
| Nc1ccccc1NC(=O)c1ccc(CNc2nc(NCC3CC3)nc(NC3Cc4ccccc4C3)n2)cc1 [Cpd 472] | – | – | – | IC50 [1, 7]: 3000 nM; IC50 (HCT116 cells; HCT-116, 72 h, Table 5b): 1000 nM; EC50 [2, 8]: 1000 nM |
| CCn1c(=O)n(Cc2ccc(C(=O)Nc3ccccc3N)cc2)c(=O)c2cc(Br)ccc21 [Cpd 344, N-(2-Amino-phenyl)-4-(6-bromo-1-ethyl-2,4-dioxo-1,4-dihydro-2H-quinazolin-3-ylmethyl)-benzamide] | 500 | 200 | 1000 | – |
| Nc1ccccc1NC(=O)c1ccc(CNc2ccc3c(c2)OCCO3)cc1 [Cpd 400, N-(2-Amino-phenyl)-4-[(2,3-dihydro-benzo[1,4]dioxin-6-ylamino)-methyl]-benzamide] | 8000 | 300 | 2000 | – |
| Nc1ccccc1NC(=O)c1ccc(CNc2nc(NCc3ccccc3)nc(NC3Cc4ccccc4C3)n2)cc1 [Cpd 25] | – | – | – | IC50 ([1]; Table 5a, read-out: Human HDAC-1 IC50): 800 nM; IC50 (HCT116 cells; HCT-116, 72 h, Table 5a): 300 nM; EC50 ([2]; T-24, Table 5a, read-out: H4Ac (T24) EC50): 5000 nM |
| Nc1ccccc1NC(=O)c1ccc(Cn2nnc3ccc(Cl)cc3c2=O)cc1 [Cpd 348, N-(2-Amino-phenyl)-4-(6-chloro-4-oxo-4H-benzo[d][1,2,3]triazin-3-ylmethyl)-benzamide] | 2000 | 300 | 1000 | – |
| COc1ccc2[nH]c(SCc3ccc(C(=O)Nc4ccccc4O)cc3)nc2c1 [compound 311] | 900 | 700 | 1000 | – |
| Nc1ccccc1NC(=O)c1ccc(NCCc2ccc(F)cc2)nc1 [Cpd 174] | – | – | – | IC50 [1, 5]: 4000 nM; IC50 (HCT116 cells; HCT-116, 72 h, Table 5E): 400 nM; EC50 [2, 6]: 5000 nM |
| COc1ccc(NCc2ccc(C(=O)Nc3cc(F)c(F)cc3N)cc2)cc1OC [Cpd 454, N-(2-Amino-4,5-difluoro-phenyl)-4-[(3,4-dimethoxy-phenylamino)-methyl]-benzamide] | 4000 | 2000 | 5000 | – |
| COc1cc(/C=C\c2ccc(/C=C/C(=O)Nc3ccccc3N)cc2)cc(OC)c1OC [Cpd 537, N-(2-Amino-phenyl)-3-{4-[2-(3,4,5-trimethoxy-phenyl)-vinyl]-phenyl}-acrylamide] | – | – | – | IC50 [1, 9]: 11000 nM; IC50 (HCT116 cells; HCT-116, Table 5d): 2000 nM; EC50 [2, 10]: > 25000 nM |
| Nc1ccccc1NC(=O)/C=C/c1ccc(NCc2cccc(O)c2)nc1 [Cpd 524, N-(2-Amino-phenyl)-3-[6-(3-hydroxy-benzylamino)-pyridin-3-yl]-acrylamide] | – | – | – | IC50 [1, 9]: 3000 nM; IC50 (HCT116 cells; HCT-116, Table 5d): 2000 nM; EC50 [2, 10]: 3000 nM |
| Nc1ccccc1NC(=O)c1ccc(CNc2nc(NCCc3ccccc3)nc(NC3CC3)n2)cc1 [Cpd 471] | – | – | – | IC50 [1, 7]: 400 nM; IC50 (HCT116 cells; HCT-116, 72 h, Table 5b): 1000 nM; EC50 [2, 8]: 3000 nM |
| COc1ccc(NCc2ccc(-c3ccc(C(=O)Nc4ccccc4N)cc3)cc2)cc1 [Cpd 190, N-(2-Amino-phenyl)-4-[4-{(4-methoxy-phenylamino)-methyl}-phenyl]-benzamide] | 3000 | 1000 | > 5000 | – |
| Nc1ccccc1NC(=O)c1ccc(-c2ccc(C(=O)Nc3ccccc3N)cc2)cc1 [Cpd 375, Biphenyl-4,4′-dicarboxylic acid bis-[(2-amino-phenyl)-amide]] | 3000 | 4000 | 25000 | – |
| Cc1cc(C)nc(SCc2ccc(C(=O)Nc3ccccc3N)cc2)n1 [Cpd 378, N-(2-Amino-phenyl)-4-(4,6-dimethyl-pyrimidin-2-ylsulfanylmethyl)-benzamide] | 2000 | 700 | 2000 | – |
